Experiments:
Test in all cases: Competitive isoTOP-ABPP in situ (fragment-treated cells)
Assay type in all cases: cell-based
[1] = biological target: T1, cysteines in MDA-MB-231 and Ramos cells (Homo sapiens, UniProt Q96HE7)
T1 sequence (Q96HE7 24-468): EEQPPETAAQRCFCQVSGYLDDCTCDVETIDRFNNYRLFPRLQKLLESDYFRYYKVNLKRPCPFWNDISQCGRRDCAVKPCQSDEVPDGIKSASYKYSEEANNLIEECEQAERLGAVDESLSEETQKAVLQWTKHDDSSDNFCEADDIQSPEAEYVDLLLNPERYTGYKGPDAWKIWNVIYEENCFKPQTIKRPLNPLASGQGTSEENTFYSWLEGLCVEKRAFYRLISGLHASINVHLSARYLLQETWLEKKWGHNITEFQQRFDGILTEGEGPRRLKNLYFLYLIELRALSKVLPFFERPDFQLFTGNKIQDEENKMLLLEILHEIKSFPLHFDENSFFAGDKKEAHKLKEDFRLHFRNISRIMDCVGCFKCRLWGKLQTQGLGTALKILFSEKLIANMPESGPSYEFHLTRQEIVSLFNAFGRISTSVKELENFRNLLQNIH

[2] = biological target: T2, cysteines in MDA-MB-231 and Ramos cells (Homo sapiens, UniProt Q13155)
T2 sequence (Q13155 1-320): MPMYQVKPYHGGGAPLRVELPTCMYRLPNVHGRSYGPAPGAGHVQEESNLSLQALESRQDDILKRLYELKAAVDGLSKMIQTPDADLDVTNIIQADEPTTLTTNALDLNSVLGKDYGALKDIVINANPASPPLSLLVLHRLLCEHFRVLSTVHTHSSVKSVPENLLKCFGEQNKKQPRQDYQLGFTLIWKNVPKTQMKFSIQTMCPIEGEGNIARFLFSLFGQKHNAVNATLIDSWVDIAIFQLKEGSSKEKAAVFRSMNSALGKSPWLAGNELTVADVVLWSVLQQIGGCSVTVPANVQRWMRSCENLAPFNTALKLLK

[3] = biological target: T3, cysteines in MDA-MB-231 and Ramos cells (Homo sapiens, UniProt P42224)
T3 sequence (P42224 1-750): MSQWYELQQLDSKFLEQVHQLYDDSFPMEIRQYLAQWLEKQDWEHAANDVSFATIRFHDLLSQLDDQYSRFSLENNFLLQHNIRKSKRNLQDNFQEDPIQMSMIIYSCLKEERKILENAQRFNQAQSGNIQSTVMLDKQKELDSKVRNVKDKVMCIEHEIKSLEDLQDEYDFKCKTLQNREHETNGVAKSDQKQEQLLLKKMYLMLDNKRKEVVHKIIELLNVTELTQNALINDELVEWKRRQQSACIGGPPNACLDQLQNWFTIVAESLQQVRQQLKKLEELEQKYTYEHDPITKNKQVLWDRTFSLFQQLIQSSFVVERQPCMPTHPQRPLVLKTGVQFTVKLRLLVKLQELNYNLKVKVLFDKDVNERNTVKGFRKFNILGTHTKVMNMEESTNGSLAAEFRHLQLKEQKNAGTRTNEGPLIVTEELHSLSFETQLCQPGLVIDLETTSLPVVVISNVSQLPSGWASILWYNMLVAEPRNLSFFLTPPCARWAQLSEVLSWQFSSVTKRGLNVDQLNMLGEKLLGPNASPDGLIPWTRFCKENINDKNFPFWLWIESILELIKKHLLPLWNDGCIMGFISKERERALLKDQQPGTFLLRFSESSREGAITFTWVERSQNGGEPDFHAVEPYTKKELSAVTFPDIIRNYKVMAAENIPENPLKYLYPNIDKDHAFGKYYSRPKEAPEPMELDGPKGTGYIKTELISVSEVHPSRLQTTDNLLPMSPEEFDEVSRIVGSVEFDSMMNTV

[4] = biological target: T4, cysteines in MDA-MB-231 and Ramos cells (Homo sapiens, UniProt P30101)
T4 sequence (P30101 25-505): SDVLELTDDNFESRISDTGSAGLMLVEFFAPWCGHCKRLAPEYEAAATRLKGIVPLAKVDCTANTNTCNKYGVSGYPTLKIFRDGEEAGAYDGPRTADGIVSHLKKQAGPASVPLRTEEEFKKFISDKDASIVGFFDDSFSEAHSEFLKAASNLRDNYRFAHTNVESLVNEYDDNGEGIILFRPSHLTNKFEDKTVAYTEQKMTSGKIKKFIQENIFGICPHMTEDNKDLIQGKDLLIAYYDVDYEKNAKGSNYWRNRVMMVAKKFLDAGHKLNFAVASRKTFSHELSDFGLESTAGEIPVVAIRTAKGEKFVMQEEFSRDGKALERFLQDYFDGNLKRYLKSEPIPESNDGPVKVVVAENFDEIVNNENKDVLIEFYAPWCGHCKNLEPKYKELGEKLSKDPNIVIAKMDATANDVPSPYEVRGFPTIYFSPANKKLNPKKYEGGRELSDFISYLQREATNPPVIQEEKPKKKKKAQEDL

[5] = biological target: T5, cysteines in MDA-MB-231 and Ramos cells (Homo sapiens, UniProt Q9BVC5)
T5 sequence (Q9BVC5 1-232): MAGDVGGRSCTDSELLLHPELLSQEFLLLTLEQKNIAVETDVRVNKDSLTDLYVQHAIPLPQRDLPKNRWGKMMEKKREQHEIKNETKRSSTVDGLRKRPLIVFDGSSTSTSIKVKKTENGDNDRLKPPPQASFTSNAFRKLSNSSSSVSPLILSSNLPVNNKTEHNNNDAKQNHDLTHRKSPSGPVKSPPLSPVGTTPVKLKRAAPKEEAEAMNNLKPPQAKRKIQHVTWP

[6] = biological target: cysteines in MDA-MB-231 and Ramos cells (Homo sapiens, UniProt Q9Y696)
cysteines in MDA-MB-231 and Ramos cells (Homo sapiens, UniProt Q9Y696), sequence (Q9Y696 whole entry): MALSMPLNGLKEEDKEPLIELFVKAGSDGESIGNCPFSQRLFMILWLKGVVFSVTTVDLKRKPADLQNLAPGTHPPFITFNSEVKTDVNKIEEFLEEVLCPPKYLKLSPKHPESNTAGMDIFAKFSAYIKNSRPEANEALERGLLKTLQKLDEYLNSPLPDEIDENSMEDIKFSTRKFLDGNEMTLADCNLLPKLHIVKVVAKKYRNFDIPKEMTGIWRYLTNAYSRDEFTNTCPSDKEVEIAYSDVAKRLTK

[7] = biological target: cysteines in MDA-MB-231 and Ramos cells (Homo sapiens, UniProt Q9BUH6); conditions: 200 μM, insitu, 231
cysteines in MDA-MB-231 and Ramos cells (Homo sapiens, UniProt Q9BUH6), sequence (Q9BUH6 whole entry): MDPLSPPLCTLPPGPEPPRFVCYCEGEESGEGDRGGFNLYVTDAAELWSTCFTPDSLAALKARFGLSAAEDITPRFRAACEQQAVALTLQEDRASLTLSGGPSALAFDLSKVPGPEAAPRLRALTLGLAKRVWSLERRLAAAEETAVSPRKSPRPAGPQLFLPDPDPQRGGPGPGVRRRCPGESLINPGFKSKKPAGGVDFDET

[8] = biological target: cysteines in MDA-MB-231 and Ramos cells (Homo sapiens, UniProt Q15021)
cysteines in MDA-MB-231 and Ramos cells (Homo sapiens, UniProt Q15021), sequence (Q15021 whole entry): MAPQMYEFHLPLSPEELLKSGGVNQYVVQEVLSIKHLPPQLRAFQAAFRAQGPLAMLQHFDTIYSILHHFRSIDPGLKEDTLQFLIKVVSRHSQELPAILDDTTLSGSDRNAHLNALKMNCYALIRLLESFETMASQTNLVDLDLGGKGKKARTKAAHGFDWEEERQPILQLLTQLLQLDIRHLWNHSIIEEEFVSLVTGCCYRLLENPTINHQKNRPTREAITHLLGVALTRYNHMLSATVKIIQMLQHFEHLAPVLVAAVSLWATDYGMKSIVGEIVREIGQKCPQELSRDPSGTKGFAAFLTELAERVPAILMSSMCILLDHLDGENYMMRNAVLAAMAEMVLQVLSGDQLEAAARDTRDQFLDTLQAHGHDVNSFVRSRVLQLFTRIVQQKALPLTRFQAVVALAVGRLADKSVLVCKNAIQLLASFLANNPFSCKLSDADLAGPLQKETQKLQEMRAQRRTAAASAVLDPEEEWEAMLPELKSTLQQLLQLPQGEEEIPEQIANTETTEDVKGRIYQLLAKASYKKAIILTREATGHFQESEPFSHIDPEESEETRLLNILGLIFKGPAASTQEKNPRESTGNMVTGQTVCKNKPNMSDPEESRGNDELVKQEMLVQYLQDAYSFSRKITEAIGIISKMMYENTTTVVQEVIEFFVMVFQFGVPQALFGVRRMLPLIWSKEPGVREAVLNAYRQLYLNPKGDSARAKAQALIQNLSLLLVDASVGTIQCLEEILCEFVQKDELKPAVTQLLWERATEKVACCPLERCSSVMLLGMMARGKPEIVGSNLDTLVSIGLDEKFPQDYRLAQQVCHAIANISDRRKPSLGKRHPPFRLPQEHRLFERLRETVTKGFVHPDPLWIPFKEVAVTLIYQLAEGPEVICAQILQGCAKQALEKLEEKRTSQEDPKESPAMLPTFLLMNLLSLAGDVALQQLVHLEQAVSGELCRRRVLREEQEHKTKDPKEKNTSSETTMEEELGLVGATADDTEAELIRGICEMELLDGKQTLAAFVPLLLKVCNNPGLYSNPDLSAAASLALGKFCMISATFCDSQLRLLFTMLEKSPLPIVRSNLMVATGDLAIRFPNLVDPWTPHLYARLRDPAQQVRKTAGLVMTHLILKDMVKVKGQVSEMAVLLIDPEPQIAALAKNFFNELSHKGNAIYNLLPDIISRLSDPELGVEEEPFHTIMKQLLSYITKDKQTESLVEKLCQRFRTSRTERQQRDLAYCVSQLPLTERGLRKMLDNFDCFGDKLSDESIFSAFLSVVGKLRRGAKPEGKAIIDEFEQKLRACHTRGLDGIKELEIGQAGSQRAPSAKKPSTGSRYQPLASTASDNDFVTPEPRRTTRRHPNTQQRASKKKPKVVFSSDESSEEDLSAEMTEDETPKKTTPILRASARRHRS

[9] = biological target: cysteines in MDA-MB-231 and Ramos cells (Homo sapiens, UniProt Q93009)
cysteines in MDA-MB-231 and Ramos cells (Homo sapiens, UniProt Q93009), sequence (Q93009 whole entry): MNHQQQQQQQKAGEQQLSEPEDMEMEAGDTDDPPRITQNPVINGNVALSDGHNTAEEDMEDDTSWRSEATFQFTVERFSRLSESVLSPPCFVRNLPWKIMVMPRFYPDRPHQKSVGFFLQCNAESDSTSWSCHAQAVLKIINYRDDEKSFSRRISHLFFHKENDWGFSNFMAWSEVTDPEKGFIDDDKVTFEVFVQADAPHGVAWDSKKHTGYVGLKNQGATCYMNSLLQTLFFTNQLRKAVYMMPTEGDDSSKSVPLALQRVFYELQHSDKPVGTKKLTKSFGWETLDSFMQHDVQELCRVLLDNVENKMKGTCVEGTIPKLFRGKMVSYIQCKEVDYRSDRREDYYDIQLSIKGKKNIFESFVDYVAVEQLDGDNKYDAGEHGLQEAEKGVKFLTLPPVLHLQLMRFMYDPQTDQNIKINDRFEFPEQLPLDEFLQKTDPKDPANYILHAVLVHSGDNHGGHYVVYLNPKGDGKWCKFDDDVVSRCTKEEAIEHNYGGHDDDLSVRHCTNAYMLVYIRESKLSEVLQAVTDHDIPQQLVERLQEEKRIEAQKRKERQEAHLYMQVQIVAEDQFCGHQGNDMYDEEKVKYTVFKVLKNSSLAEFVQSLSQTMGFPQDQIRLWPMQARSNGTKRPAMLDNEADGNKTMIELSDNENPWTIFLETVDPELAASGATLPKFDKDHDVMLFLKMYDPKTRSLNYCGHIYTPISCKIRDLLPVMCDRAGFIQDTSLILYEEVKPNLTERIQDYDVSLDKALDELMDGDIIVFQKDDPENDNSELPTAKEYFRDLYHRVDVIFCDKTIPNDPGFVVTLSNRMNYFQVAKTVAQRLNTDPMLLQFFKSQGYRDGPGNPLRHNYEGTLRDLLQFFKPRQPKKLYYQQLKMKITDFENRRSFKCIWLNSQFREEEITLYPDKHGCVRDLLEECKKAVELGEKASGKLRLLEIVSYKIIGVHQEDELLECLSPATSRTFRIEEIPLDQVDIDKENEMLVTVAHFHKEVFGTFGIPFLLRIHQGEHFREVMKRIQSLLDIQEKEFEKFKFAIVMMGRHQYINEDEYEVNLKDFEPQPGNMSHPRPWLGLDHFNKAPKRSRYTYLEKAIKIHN

SMILES | isoTOP-ABPP ratio Q96HE7_C241 ([1]; 200 μM, insitu, 231) | isoTOP-ABPP ratio Q9BUH6_C180 [7] | isoTOP-ABPP ratio Q13155_C23 ([2]; 200 μM, insitu, 231) | isoTOP-ABPP ratio P42224_C492 ([3]; 200 μM, insitu, 231) | isoTOP-ABPP ratio Q9BVC5_C10 ([5]; 200 μM, insitu, 231) | isoTOP-ABPP ratio Q9Y696_C35 ([6]; 200 μM, insitu, 231) | isoTOP-ABPP ratio Q13155_C291 ([2]; 200 μM, insitu, 231) | isoTOP-ABPP ratio Q93009_C223 ([9]; 200 μM, insitu, 231) | isoTOP-ABPP ratio Q15021_C439 ([8]; 200 μM, insitu, 231) | isoTOP-ABPP ratio P30101_C57 ([4]; 200 μM, insitu, 231) | isoTOP-ABPP ratio P30101_C406 ([4]; 200 μM, insitu, 231) | isoTOP-ABPP ratio Q96HE7_C37 ([1]; 200 μM, insitu, 231) | further results
COc1ccc2c(c1)CCCN2C(=O)CCl [compound 2] | – | – | – | – | – | – | – | – | – | – | – | – | isoTOP-ABPP reactivity Q96HE7_C241 ERO1L ([1]; 200 μM, insitu, 231): 2.4; isoTOP-ABPP reactivity Q13155_C291 AIMP2 ([2]; 200 μM, insitu, 231): 20.0; isoTOP-ABPP reactivity P42224_C492 STAT1 ([3]; 200 μM, insitu, 231): 16.9; isoTOP-ABPP reactivity P30101_057 PDIA3 ([4]; 200 μM, insitu, 231): 2.2; isoTOP-ABPP reactivity P30101_C406 PDIA3 ([4]; 200 μM, insitu, 231): 3.2; isoTOP-ABPP reactivity Q9BVC5_C10 C2orf49 ([5]; 200 μM, insitu, 231): 2.7; isoTOP-ABPP reactivity Q9Y696_C35 CLIC4 ([6]; 200 μM, insitu, 231): 1.7
O=C(CCl)N1CCC(Cc2ccccc2)CC1 [compound 9] | – | – | – | – | – | – | – | – | – | – | – | – | isoTOP-ABPP reactivity Q96HE7_C37 ERO1L ([1]; 200 μM, insitu, 231): 20.0; isoTOP-ABPP reactivity Q9BUH6_C180 C9orf142 [7]: 2.8; isoTOP-ABPP reactivity Q13155_C291 AIMP2 ([2]; 200 μM, insitu, 231): 1.9; isoTOP-ABPP reactivity P42224_C492 STAT1 ([3]; 200 μM, insitu, 231): 3.1; isoTOP-ABPP reactivity Q15021_C439 NCAPD2 ([8]; 200 μM, insitu, 231): 6.1; isoTOP-ABPP reactivity P30101_C406 PDIA3 ([4]; 200 μM, insitu, 231): 1.4; isoTOP-ABPP reactivity Q9Y696_C35 CLIC4 ([6]; 200 μM, insitu, 231): 2.6
Cn1cc(S(=O)(=O)N2CCOCC2)cc1C(=O)NC(=O)CCl [compound 11] | – | – | – | – | – | – | – | – | – | – | – | – | isoTOP-ABPP ratio Q96HE7_C241 ([1]; 100 μM in situ 231): 1.8; isoTOP-ABPP ratio Q13155_C23 ([2]; 100 μM in situ 231): 1.2; isoTOP-ABPP ratio Q13155_C291 ([2]; 100 μM in situ 231): 0.9; isoTOP-ABPP ratio Q93009_C223 ([9]; 100 μM in situ 231): 1.0; isoTOP-ABPP ratio P42224_C492 ([3]; 100 μM in situ 231): 0.7; isoTOP-ABPP ratio Q15021_C439 ([8]; 100 μM in situ 231): 0.9; isoTOP-ABPP ratio P30101_C57 ([4]; 100 μM in situ 231): 2.2; isoTOP-ABPP ratio Q9BVC5_C10 ([5]; 100 μM in situ 231): 1.1; isoTOP-ABPP ratio Q9Y696_C35 ([6]; 100 μM in situ 231): 1.9
O=C(CCl)NCCc1c[nH]c2ccccc12 [compound 13] | 1.5 | 1.1 | 0.9 | 1.0 | 1.6 | 2.3 | – | – | – | – | – | – | isoTOP-ABPP ratio Q96HE7_C241 ([1]; 200 μM, insitu, ramos): 1.3; isoTOP-ABPP ratio, cysteine Q96HE7_C37 ([1]; 200 μM, insitu, ramos): 1.4; isoTOP-ABPP ratio Q93009_C223 ([9]; 200 μM, insitu, ramos): 1.3; isoTOP-ABPP ratio P30101_C57 ([4]; 200 μM, insitu, ramos): 1.6; isoTOP-ABPP ratio P30101_C406 ([4]; 200 μM, insitu, ramos): 2.0; isoTOP-ABPP ratio Q9Y696_C35 ([6]; 200 μM, insitu, ramos): 3.2
O=C(CCl)NC12CC3CC(CC(C3)C1)C2 [compound 21] | 1.6 | – | 0.9 | 0.7 | 1.5 | 1.1 | 0.8 | 1.8 | 0.7 | 1.0 | – | – | –
CC(C)CCOCCNC(=O)CCl [compound 27] | 0.9 | – | 0.7 | – | 1.1 | 1.0 | 0.7 | 1.1 | 0.6 | 1.1 | 1.2 | – | –
C=CC(=O)N(Cc1cccnc1)c1cc(C(F)(F)F)cc(C(F)(F)F)c1 [compound 31] | 0.7 | 0.8 | – | 0.8 | – | 0.6 | 0.8 | – | 20.0 | 0.9 | 0.8 | 0.6 | isoTOP-ABPP ratio P42224_C492 ([3]; 200 μM, insitu, ramos): 1.9; isoTOP-ABPP ratio P30101_C406 ([4]; 200 μM, insitu, ramos): 1.1
Cc1ccc(C=C(C#N)C(=O)NCCN2CCOCC2)cc1 [compound 41] | 0.7 | 0.6 | – | 0.6 | 1.0 | 0.6 | 0.7 | – | 0.8 | 1.3 | 1.0 | 0.4 | –
CC1CCc2ccccc2N1C(=O)CCl (stereo not shown) [compound 45] | 2.1 | 5.5 | 4.4 | 20.0 | 3.4 | 1.4 | 7.3 | 20.0 | – | 2.6 | 2.6 | 20.0 | –
O=C(CCl)Nc1cccc2ncccc12 [compound 51] | 1.7 | – | 1.2 | 2.4 | 1.0 | 2.6 | 1.1 | 1.0 | 1.1 | – | 6.0 | – | –

— patent US10670605B2, “Cysteine reactive probes and uses thereof” (The Scripps Research Institute, priority 2015, dated 2020)
